The text below walks through data of patent publication US9803450B2, “Use of oligo-quaternary compositions to increase scale inhibitor lifetime in a subterranean formation” (Ecolab USA Inc., priority 2012, dated 2017).

One series concerns Fathead Minnow. The series can be described thus: Toxicity, LC50 Fathead Minnow. The settings on record: in vivo. The method, then: Product A was evaluated for toxicity using various tests.
Series [1] is described as follows: Compatibility test of scale inhibitors with Product A in synthetic brine. It counts as physicochemical. Also on record: key: C—Clear; P—Precipitate. The settings on record: 10% scale inhibitor solution mixed with 10% Product A solution in synthetic brine. From the text: Individual solutions (Solutions 1B through 1G) of 10% Product B, C, D, E, F and G, respectively, in a synthetic brine (see the table below showing the synthetic brine composition) were mixed with a 10% solution (Solution 2) of Product A in the synthetic brine. The two sets of solutions were mixed with Solution 2 (i. e., each of Solutions 1B through 1G were mixed with Solution 2) at ratios of 10:90, 30:70, 50:50, 70:30 and 90:10 to indicate that no precipitate would form at any concentration in the mixing concentration range from 10:90 to 90:10. These compatibility screening tests indicate that it is unlikely for any incompatibility to be experienced during deployment and flow back of a squeeze treatment. Any incompatibilities under ambient conditions were observed visually from solution clarity and/or precipitate. The samples were then heated to the test temperature (80° C.) and any further incompatibilities after 2 and 24 hours recorded.

The next series can be described thus: Coreflood. The settings on record: flow back versus pre-treatment permeability. The method, then: Two corefloods were carried out simultaneously on two Bandera outcrop cores (1.5″ diameter by 3″ length), using a Scaled Solutions dual coreflood apparatus. The composition of these cores is set out in the table below:
Both cores were wrapped with PTFE tape and cased in heat shrink tubing prior to insertion into a Viton sleeve and mounted in a Hassler type core holder with a confining pressure of 1200 psi. Both cores were then flushed with synthetic brine at 1 mL/min for at least 2 hours and until the differential pressure was stable. Brine was flushed at 0.5 mL/min overnight.
Both cores were saturated with synthetic brine under ambient conditions in the forward direction at 1 mL/min for 10 minutes, 2 mL/min for 10 minutes, 3 mL/min for 10 minutes, and 4 mL/min for 2 hours and until the differential pressure was stable. After a stable differential pressure was achieved, the permeability to brine was measured in the forward flow by flooding at 4, 3, 2, 1 mL/min at room temperature.
Brine was then injected into both cores in the forward direction at 1 mL/min until the oven reached a temperature of 80° C. […] Following plug saturation, the permeability of each core to synthetic brine was measured in the forward flow by flooding at 4, 3, 2, and 1 mL/min at 80° C. […]
Both cores were injected with synthetic brine at 2 mL/min with effluent samples being collected. The samples were analyzed by ICP. […]

The mark [2] stands for this setting: ratio printed 10:90 (fifth column).
Setting [3] is: ratio printed 30:70 (fourth column).

A value given as a limit tells only on which side of the number the result lay.

On to `C[N+](C)(C)CC(O)C[N+](C)(C)C.[Cl-].[Cl-]` [Product A, 1,3-propandiaminium, 2-hydroxy-N,N,N,N′,N′,N′-hexamethyl-, dichloride], for which the “LC50 Fathead Minnow” value in the series on Fathead Minnow is reported as >1,000 mg/L.
Take `O=P(O)(O)CN(CCCCCCN(CP(=O)(O)O)CP(=O)(O)O)CCCCCCN(CP(=O)(O)O)CP(=O)(O)O` [Product B, BHMT phosphonate]: the “Clarity of Mixed Solutions” value in series [1] (ratio 10:90 (first column)), in series [1] (ratio 30:70 (second column)), in series [1] (ratio 50:50), in series [1] (setting [2]) and in series [1] (setting [3]) was “C” throughout. Besides, the “Permeability Recovery” value in “Coreflood” and in the series “Coreflood” (listed as Brine/10% Product B) was 75% in each case.
Turning to DETA phosphonate [Product C], the “Clarity of Mixed Solutions” value in series [1] (ratio 10:90 (first column)), in series [1] (ratio 30:70 (second column)), in series [1] (ratio 50:50), in series [1] (setting [2]) and in series [1] (setting [3]) was “C” each time.
